Measured values taken from ChEMBL document CHEMBL1150840, “Onnamide F: a new nematocide from a southern Australian marine sponge, Trachycladus laevispirulifer” (2001).
Calls of active or inactive are those of the source. The calls are words filed in the database; no cut-off is given here.

Key:
Saccharomyces cerevisiae = assay: Antifungal activity against Saccharomyces cerevisiae; assay type: functional
Haemonchus contortus [1] = assay: Nematocidal activity against Haemonchus contortus; assay type: functional
Bacillus subtilis = assay: Antibacterial activity against Bacillus subtilis; assay type: functional, organism-based
Haemonchus contortus [2] = assay: Nematocidal activity against Haemonchus contortus assessed as inhibition of larval development at L1 stage at high concentration; assay type: functional, organism-based
Escherichia coli = assay: Antibacterial activity against Escherichia coli; assay type: functional, organism-based

| Compound | LD99 (Saccharomyces cerevisiae) [µg/mL] | LD99 (Haemonchus contortus [1]) [µg/mL] | Activity (Bacillus subtilis) | inhibition (Haemonchus contortus [2]) | Activity (Escherichia coli) |
| --- | --- | --- | --- | --- | --- |
| C=C1C[C@](OC)([C@H](O)C(=O)N[C@@H](OC)[C@@H]2C[C@@H](OC)C(C)(C)[C@@H](CC(O)CCC/C=C/C=C/C(=O)OC)O2)O[C@H](C)[C@@H]1C (some centres not stated) [ONNAMIDE F METHYL ESTER] | 5.2 | 2.6 | – | – | – |
| C=C1C[C@](OC)([C@H](O)C(=O)N[C@@H](OC)[C@@H]2C[C@@H](OC)C(C)(C)[C@@H](CC(O)CCC/C=C/C=C/C(=O)O)O2)O[C@H](C)[C@@H]1C (some centres not stated) [ONNAMIDE F] | 1.4 | 5.2 | inactive | Active | inactive |
